Patent US9340590B2 (priority 2011, dated 2016)
Like-named read-outs stand apart in the source and are kept apart here. Positions of bridges follow the written chain, without caps; N, C: chain ends. Residues, ends and D or L forms follow the SMILES beside them.

Legend:
Test in all cases: cell-based
hNav1.7 = hNav1.7 (Homo sapiens, UniProt Q15858); type: cell-based
hNav1.5 = hNav1.5 (Homo sapiens, UniProt Q14524)
hNav1.3 = hNav1.3 (Homo sapiens, UniProt Q9NY46); settings: IonWorks Quattro, read-out: IWQ Use Nav1.3
[1] = IonWorks Quattro, use-dependent block, hNav1.7, read-out: IWQ Use Nav1.7
[2] = IonWorks Quattro, use-dependent block, hNav1.5, read-out: IWQ Use Nav1.5
[3] = IonWorks Quattro, use-dependent protocol, hNav1.7, read-out: IWQ Use Nav1.7
[4] = use-dependent protocol, hNav1.3

Sequence of hNav1.5 (Q14524 whole entry, looked up): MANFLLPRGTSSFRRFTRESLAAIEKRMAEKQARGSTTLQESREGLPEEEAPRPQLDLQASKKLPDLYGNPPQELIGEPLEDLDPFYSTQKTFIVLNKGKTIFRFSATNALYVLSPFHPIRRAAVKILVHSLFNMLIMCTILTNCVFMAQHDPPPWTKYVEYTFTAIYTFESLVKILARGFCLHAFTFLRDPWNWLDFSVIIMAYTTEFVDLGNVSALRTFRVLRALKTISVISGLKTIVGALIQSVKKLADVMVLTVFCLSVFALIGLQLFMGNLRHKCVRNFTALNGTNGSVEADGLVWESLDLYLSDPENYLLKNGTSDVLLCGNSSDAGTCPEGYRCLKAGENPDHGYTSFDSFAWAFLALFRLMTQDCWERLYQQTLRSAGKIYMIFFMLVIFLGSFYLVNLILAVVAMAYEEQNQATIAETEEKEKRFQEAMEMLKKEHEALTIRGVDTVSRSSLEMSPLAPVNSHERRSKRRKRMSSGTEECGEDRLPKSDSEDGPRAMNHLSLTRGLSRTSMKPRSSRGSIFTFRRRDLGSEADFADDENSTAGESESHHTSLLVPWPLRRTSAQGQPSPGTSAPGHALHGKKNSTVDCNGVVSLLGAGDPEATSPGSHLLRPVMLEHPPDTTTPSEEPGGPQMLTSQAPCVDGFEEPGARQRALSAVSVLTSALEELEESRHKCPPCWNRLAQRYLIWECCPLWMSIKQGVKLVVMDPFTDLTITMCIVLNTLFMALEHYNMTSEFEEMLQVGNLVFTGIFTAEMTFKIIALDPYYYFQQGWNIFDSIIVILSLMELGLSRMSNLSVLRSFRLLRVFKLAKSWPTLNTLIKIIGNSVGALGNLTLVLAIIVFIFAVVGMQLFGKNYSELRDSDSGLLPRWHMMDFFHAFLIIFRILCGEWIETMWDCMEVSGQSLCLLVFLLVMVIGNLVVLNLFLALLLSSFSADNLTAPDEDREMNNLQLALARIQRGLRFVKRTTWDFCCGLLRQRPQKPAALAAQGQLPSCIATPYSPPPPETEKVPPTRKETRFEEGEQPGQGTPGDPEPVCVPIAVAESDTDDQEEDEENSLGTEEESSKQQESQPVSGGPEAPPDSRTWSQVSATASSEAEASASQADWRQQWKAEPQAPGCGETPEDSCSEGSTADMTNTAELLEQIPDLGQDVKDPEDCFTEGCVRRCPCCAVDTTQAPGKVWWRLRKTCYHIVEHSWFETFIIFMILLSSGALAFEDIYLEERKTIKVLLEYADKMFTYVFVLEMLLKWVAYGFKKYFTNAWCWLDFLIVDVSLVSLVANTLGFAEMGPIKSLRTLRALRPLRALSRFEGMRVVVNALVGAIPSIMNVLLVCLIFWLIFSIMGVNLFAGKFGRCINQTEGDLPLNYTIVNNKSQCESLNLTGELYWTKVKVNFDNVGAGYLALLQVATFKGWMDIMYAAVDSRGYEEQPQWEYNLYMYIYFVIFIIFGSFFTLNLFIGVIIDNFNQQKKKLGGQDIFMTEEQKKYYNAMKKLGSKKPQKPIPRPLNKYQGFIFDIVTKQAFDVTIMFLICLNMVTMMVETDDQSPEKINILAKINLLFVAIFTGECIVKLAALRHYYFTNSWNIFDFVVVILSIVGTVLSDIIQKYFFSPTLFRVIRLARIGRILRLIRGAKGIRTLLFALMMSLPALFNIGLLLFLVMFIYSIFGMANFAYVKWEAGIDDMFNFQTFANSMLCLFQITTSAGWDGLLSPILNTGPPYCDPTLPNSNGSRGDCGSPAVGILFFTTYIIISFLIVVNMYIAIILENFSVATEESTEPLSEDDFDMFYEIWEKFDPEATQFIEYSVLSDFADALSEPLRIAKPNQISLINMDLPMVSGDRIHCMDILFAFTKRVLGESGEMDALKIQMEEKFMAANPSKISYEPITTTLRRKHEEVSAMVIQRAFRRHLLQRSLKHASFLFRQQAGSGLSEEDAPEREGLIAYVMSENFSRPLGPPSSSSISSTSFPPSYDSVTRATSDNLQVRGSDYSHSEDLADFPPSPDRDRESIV
Sequence of hNav1.3 (Q9NY46 whole entry, looked up): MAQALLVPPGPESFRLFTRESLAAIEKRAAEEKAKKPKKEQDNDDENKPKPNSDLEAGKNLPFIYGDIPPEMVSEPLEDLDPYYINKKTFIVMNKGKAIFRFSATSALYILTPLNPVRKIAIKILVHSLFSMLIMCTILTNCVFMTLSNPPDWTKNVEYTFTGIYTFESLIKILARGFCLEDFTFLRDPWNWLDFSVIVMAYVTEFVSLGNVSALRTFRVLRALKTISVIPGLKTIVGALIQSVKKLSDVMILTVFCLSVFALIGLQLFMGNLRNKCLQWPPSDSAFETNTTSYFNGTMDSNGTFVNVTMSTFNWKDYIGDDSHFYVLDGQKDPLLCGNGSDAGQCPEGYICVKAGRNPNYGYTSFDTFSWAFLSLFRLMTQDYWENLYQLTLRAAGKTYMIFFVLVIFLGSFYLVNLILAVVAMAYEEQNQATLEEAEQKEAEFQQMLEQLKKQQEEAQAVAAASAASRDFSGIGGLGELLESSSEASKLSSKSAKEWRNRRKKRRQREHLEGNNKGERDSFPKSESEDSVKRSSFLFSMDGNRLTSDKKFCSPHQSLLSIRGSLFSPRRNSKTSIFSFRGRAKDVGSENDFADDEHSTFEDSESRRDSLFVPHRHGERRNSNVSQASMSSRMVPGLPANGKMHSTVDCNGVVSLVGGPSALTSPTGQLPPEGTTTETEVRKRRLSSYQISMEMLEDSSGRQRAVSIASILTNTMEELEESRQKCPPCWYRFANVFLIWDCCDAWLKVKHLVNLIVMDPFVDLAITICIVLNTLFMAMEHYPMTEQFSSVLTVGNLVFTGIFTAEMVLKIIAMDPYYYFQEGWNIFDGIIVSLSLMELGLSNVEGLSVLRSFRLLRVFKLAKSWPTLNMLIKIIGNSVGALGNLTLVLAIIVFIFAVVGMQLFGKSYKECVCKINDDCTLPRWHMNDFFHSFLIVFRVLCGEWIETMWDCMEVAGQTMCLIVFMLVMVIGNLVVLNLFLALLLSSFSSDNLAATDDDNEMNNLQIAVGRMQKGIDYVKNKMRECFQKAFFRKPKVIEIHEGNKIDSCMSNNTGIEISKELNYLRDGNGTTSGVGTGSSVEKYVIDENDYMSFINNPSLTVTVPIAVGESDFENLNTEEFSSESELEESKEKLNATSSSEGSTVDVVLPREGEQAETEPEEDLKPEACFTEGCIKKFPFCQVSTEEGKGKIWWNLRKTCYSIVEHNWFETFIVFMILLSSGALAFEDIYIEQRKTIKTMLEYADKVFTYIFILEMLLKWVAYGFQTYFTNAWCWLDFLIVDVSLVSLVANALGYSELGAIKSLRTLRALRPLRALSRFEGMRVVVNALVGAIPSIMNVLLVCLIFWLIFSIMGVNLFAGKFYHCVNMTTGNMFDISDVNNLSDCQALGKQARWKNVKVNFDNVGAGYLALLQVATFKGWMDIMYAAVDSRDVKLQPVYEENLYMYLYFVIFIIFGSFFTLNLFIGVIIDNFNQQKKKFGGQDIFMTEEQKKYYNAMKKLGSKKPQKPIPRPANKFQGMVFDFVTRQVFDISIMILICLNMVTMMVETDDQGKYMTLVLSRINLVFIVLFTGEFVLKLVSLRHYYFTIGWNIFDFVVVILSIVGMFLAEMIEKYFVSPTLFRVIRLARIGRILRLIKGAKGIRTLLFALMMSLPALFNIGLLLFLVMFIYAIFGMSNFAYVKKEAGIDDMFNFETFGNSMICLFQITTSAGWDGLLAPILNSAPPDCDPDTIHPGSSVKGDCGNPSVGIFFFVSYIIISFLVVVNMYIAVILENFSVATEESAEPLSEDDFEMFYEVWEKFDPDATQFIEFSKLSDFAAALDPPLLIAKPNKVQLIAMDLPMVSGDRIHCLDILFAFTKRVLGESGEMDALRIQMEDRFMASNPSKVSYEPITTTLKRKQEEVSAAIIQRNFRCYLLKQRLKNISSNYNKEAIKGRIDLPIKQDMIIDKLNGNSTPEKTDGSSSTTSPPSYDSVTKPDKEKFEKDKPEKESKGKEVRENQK

CC[C@H](C)[C@@H]1NC(=O)[C@@H]2CSSC[C@@H]3NC(=O)[C@H](C(C)C)NC(=O)[C@H](CC(C)C)NC(=O)[C@H](CC(N)=O)NC(=O)[C@@H]4CCCN4C(=O)[C@H](CCCNC(=N)N)NC(=O)[C@H](CSSC[C@H](NC(=O)[C@@H](N)CC(=O)O)C(=O)N[C@@H](CC(C)C)C(=O)NCC(=O)N[C@@H](Cc4ccccc4)C(=O)N[C@@H](CCSC)C(=O)N[C@@H](CCCNC(=N)N)C(=O)N[C@@H](CCCCN)C(=O)N2)NC(=O)[C@H](CSSC[C@@H](C(=O)N[C@@H](CCCCN)C(=O)N[C@@H](Cc2ccc(O)cc2)C(=O)N[C@H](C(=O)N[C@@H](Cc2ccccc2)C(N)=O)C(C)C)NC(=O)[C@H](Cc2c[nH]c4ccccc24)NC(=O)[C@H](CCCCN)NC(=O)[C@H](Cc2cnc[nH]2)NC(=O)[C@H](CCCCN)NC(=O)[C@H](CCCNC(=N)N)NC(=O)[C@H](CO)NC3=O)NC(=O)[C@H](CCCCN)NC(=O)[C@H](CC(=O)O)NC(=O)[C@H](CC(N)=O)NC(=O)[C@H](CC(=O)O)NC(=O)[C@@H]2CCCN2C1=O [compound 54] (H-DCLGFMRKCIPDNDKCCRPNLVCSRKHKWCKYVF-NH2; disulfide 2-17, 9-23, 16-30)
IC50 (hNav1.7; Table 22, IonWorks Quattro, use, […], read-out: IWQ Use Nav1.7): 50 nM | IC50 (hNav1.5; Table 22, IonWorks Quattro, use, […], read-out: IWQ Use Nav1.5): 7960 nM | IC50 (hNav1.3; Table 22, use, […]): 20 nM

CC[C@H](C)[C@@H]1NC(=O)[C@@H]2CSSC[C@@H]3NC(=O)[C@H](C(C)C)NC(=O)[C@H](CC(C)C)NC(=O)[C@H](CC(N)=O)NC(=O)[C@@H]4CCCN4C(=O)[C@H](CCCNC(=N)N)NC(=O)[C@H](CSSC[C@H](NC(=O)[C@@H](N)CC(=O)O)C(=O)N[C@@H](CC(C)C)C(=O)NCC(=O)N[C@@H](C)C(=O)N[C@@H](CC(C)C)C(=O)N[C@@H](CCCNC(=N)N)C(=O)N[C@@H](CCCCN)C(=O)N2)NC(=O)[C@H](CSSC[C@@H](C(=O)N[C@@H](CCCCN)C(=O)N[C@@H](Cc2ccc(O)cc2)C(=O)N[C@H](C(=O)N[C@@H](Cc2ccccc2)C(=O)O)C(C)C)NC(=O)[C@H](Cc2c[nH]c4ccccc24)NC(=O)[C@H](CCCNC(=N)N)NC(=O)[C@H](Cc2c[nH]cn2)NC(=O)[C@H]([C@@H](C)O)NC(=O)[C@H](CCCNC(=N)N)NC(=O)[C@H](CO)NC3=O)NC(=O)[C@H](CCCCN)NC(=O)[C@H](CC(=O)O)NC(=O)[C@H](CC(N)=O)NC(=O)[C@H](CC(=O)O)NC(=O)[C@@H]2CCCN2C1=O [compound 853] (H-DCLGALRKCIPDNDKCCRPNLVCSRTHRWCKYVF-OH; disulfide 2-17, 9-23, 16-30)
IC50 (hNav1.7; [1]): > 5000 nM | IC50 (hNav1.5; [2]): > 5000 nM | IC50 (hNav1.3; use-dependent block, hNav1.3): > 5000 nM

CC[C@H](C)[C@@H]1NC(=O)[C@@H]2CSSC[C@@H]3NC(=O)[C@H](C(C)C)NC(=O)[C@H](CC(C)C)NC(=O)[C@H](CC(N)=O)NC(=O)[C@@H]4CCCN4C(=O)[C@H](CCCNC(=N)N)NC(=O)[C@H](CSSC[C@H](NC(=O)[C@@H](N)CC(=O)O)C(=O)N[C@@H](CC(C)C)C(=O)NCC(=O)N[C@@H](Cc4ccccc4)C(=O)N[C@@H](Cc4c[nH]c5ccccc45)C(=O)N[C@@H](CCCNC(=N)N)C(=O)N[C@@H](CCCCN)C(=O)N2)NC(=O)[C@H](CSSC[C@@H](C(=O)N[C@@H](CCCCN)C(=O)N[C@@H](Cc2ccc(O)cc2)C(=O)N[C@H](C(=O)N[C@@H](Cc2ccccc2)C(N)=O)C(C)C)NC(=O)[C@H](Cc2c[nH]c4ccccc24)NC(=O)[C@H](CCCNC(=N)N)NC(=O)[C@H](Cc2c[nH]cn2)NC(=O)[C@H]([C@@H](C)O)NC(=O)[C@H](CCCNC(=N)N)NC(=O)[C@H](CO)NC3=O)NC(=O)[C@H](CCCCN)NC(=O)[C@H](CC(=O)O)NC(=O)[C@H](CC(N)=O)NC(=O)[C@H](CC(=O)O)NC(=O)[C@@H]2CCCN2C1=O [compound 448] (H-DCLGFWRKCIPDNDKCCRPNLVCSRTHRWCKYVF-NH2; disulfide 2-17, 9-23, 16-30)
IC50 (hNav1.7; [1]): 10 nM | IC50 (hNav1.5; [2]): 2910 nM | IC50 (hNav1.3; use-dependent block, hNav1.3): 10 nM

CC[C@H](C)[C@@H]1NC(=O)[C@@H]2CSSC[C@@H]3NC(=O)[C@H](CCCCN)NC(=O)[C@H](CC(C)C)NC(=O)[C@H](CC(N)=O)NC(=O)[C@@H]4CCCN4C(=O)[C@H](CCCNC(=N)N)NC(=O)[C@H](CSSC[C@H](NC(=O)[C@@H](N)CC(=O)O)C(=O)N[C@@H](CC(C)C)C(=O)NCC(=O)N[C@@H](Cc4ccccc4)C(=O)N[C@@H](CCSC)C(=O)N[C@@H](CCCNC(=N)N)C(=O)N[C@@H](CCCCN)C(=O)N2)NC(=O)[C@H](CSSC[C@@H](C(=O)N[C@@H](CCCCN)C(=O)N[C@@H](Cc2ccc(O)cc2)C(=O)N[C@H](C(=O)N[C@@H](Cc2ccccc2)C(N)=O)C(C)C)NC(=O)[C@H](Cc2c[nH]c4ccccc24)NC(=O)[C@H](CCCCN)NC(=O)[C@H](Cc2cnc[nH]2)NC(=O)[C@H]([C@@H](C)O)NC(=O)[C@H](CCCNC(=N)N)NC(=O)[C@H](CO)NC3=O)NC(=O)[C@H](CCCCN)NC(=O)[C@H](CC(=O)O)NC(=O)[C@H](CC(N)=O)NC(=O)[C@H](CC(=O)O)NC(=O)[C@@H]2CCCN2C1=O [compound 52] (H-DCLGFMRKCIPDNDKCCRPNLKCSRTHKWCKYVF-NH2; disulfide 2-17, 9-23, 16-30)
IC50 (hNav1.7): 190 nM | IC50 (hNav1.5; IonWorks Quattro, Use, read-out: IWQ Use Nav1.5): 15000 nM | IC50 (hNav1.3; Use): 80 nM

CC[C@H](C)[C@@H]1NC(=O)[C@@H]2CSSC[C@@H]3NC(=O)[C@H](C(C)C)NC(=O)[C@H](CC(C)C)NC(=O)[C@H](CC(N)=O)NC(=O)[C@@H]4CCCN4C(=O)[C@H](CCCNC(=N)N)NC(=O)[C@H](CSSC[C@H](NC(=O)[C@@H](N)CC(=O)O)C(=O)N[C@@H](CC(C)C)C(=O)NCC(=O)N[C@@H](C4CCCC4)C(=O)N[C@@H](CCSC)C(=O)N[C@@H](CCCNC(=N)N)C(=O)N[C@@H](CCCCN)C(=O)N2)NC(=O)[C@H](CSSC[C@@H](C(=O)N[C@@H](CCCCN)C(=O)N[C@@H](Cc2ccc(O)cc2)C(=O)N[C@H](C(=O)N[C@@H](Cc2ccccc2)C(N)=O)C(C)C)NC(=O)[C@H](Cc2c[nH]c4ccccc24)NC(=O)[C@H](CCCCN)NC(=O)[C@H](Cc2cnc[nH]2)NC(=O)[C@H]([C@@H](C)O)NC(=O)[C@H](CCCNC(=N)N)NC(=O)[C@H](CO)NC3=O)NC(=O)[C@H](CCCCN)NC(=O)[C@H](CC(=O)O)NC(=O)[C@H](CC(N)=O)NC(=O)[C@H](CC(=O)O)NC(=O)[C@@H]2CCCN2C1=O [compound 683]
IC50 (hNav1.7; [3]): 230 nM | IC50 (hNav1.5; IWQ Use Nav1.5): > 5000 nM | IC50 (hNav1.3; [4]): 630 nM

CC[C@H](C)[C@@H]1NC(=O)[C@@H]2CSSC[C@@H]3NC(=O)[C@H](C(C)C)NC(=O)[C@H](CC(C)C)NC(=O)[C@H](CC(N)=O)NC(=O)[C@@H]4CCCN4C(=O)[C@H](CCCNC(=N)N)NC(=O)[C@H](CSSC[C@H](NC(=O)[C@@H](N)CC(=O)O)C(=O)N[C@@H](CC(C)C)C(=O)NCC(=O)N[C@@H](C)C(=O)N[C@@H](CC(C)C)C(=O)N[C@@H](CCCNC(=N)N)C(=O)N[C@@H](CCCCN)C(=O)N2)NC(=O)[C@H](CSSC[C@@H](C(=O)N[C@@H](CCCCN)C(=O)N[C@@H](Cc2ccc(O)cc2)C(=O)N[C@H](C(=O)N[C@@H](Cc2ccccc2)C(=O)O)C(C)C)NC(=O)[C@H](Cc2c[nH]c4ccccc24)NC(=O)[C@H](CCCNC(=N)N)NC(=O)[C@H](Cc2c[nH]cn2)NC(=O)[C@H]([C@@H](C)O)NC(=O)[C@H](CCCNC(=N)N)NC(=O)[C@H](CO)NC3=O)NC(=O)[C@H](CCCCN)NC(=O)[C@H](CC(=O)O)NC(=O)[C@H](CCC(=O)O)NC(=O)[C@H](CC(=O)O)NC(=O)[C@@H]2CCCN2C1=O [compound 862] (H-DCLGALRKCIPDEDKCCRPNLVCSRTHRWCKYVF-OH; disulfide 2-17, 9-23, 16-30)
IC50 (hNav1.7; [1]): > 5000 nM | IC50 (hNav1.5; [2]): > 5000 nM | IC50 (hNav1.3; use-dependent block, hNav1.3): > 5000 nM

CC[C@H](C)[C@@H]1NC(=O)[C@@H]2CSSC[C@@H]3NC(=O)[C@H](C(C)C)NC(=O)[C@H](CC(C)C)NC(=O)[C@H](CC(N)=O)NC(=O)[C@@H]4CCCN4C(=O)[C@H](CCCNC(=N)N)NC(=O)[C@H](CSSC[C@H](NC(=O)[C@@H](N)CC(=O)O)C(=O)N[C@@H](CC(C)C)C(=O)NCC(=O)N[C@@H](CCSC)C(=O)N[C@@H](CC(C)C)C(=O)N[C@@H](CCCNC(=N)N)C(=O)N[C@@H](CCCCN)C(=O)N2)NC(=O)[C@H](CSSC[C@@H](C(=O)N[C@@H](CCCCN)C(=O)N[C@@H](Cc2ccc(O)cc2)C(=O)N[C@H](C(=O)N[C@@H](Cc2ccccc2)C(N)=O)C(C)C)NC(=O)[C@H](Cc2c[nH]c4ccccc24)NC(=O)[C@H](CCCCN)NC(=O)[C@H](Cc2c[nH]cn2)NC(=O)[C@H]([C@@H](C)O)NC(=O)[C@H](CCCNC(=N)N)NC(=O)[C@H](CO)NC3=O)NC(=O)[C@H](CCCCN)NC(=O)[C@H](CC(=O)O)NC(=O)[C@H](CC(N)=O)NC(=O)[C@H](CC(=O)O)NC(=O)[C@@H]2CCCN2C1=O [compound 641] (H-DCLGMLRKCIPDNDKCCRPNLVCSRTHKWCKYVF-NH2; disulfide 2-17, 9-23, 16-30)
IC50 (hNav1.7; [3]): 69 nM | IC50 (hNav1.5; IWQ Use Nav1.5): > 5000 nM | IC50 (hNav1.3; [4]): 240 nM
